Here are results for twelve compounds from patent publication US20260022097A1 (priority 2022, published 2026).

As a reminder, the Ki is a measure of affinity in units of concentration, obtained from inhibition or displacement. Higher therefore signals a looser hold on the target.

Data set [1] concerns the target kappa-opioid receptor (KOR) (Homo sapiens, UniProt P41145). Description: inhibition of forskolin-induced cAMP accumulation assay, KOR antagonist mode versus U50488H. The data set is classed as cell-based. The settings on record: for IC50: read-out: KOR Antagonist IC50+/-SEM. On the technique in general: Changes in cAMP serve as a functional read-out for many G protein-coupled receptors.

For data set [2], the target named is mu-opioid receptor (MOR) (Homo sapiens, UniProt P35372). Description: cell-based. The data set is classed as cell-based. The settings on record: for Emax: read-out: MOR Agonist % Emax+/-SEM; for EC50: read-out: MOR Agonist EC50+/-SEM.
For data set [3], the target named is T1, delta-opioid receptor (DOR) (Homo sapiens, UniProt P41143). Description: inhibition of forskolin-induced cAMP accumulation assay, DOR agonist mode. The data set is classed as cell-based. The settings on record: for Emax: read-out: DOR Agonist % Emax+/-SEM (converted); for EC50: read-out: DOR Agonist EC50+/-SEM.
Data set [4] has as its target T1, delta-opioid receptor (DOR). Description: inhibition of forskolin-induced cAMP accumulation assay, DOR antagonist mode versus SNC80. Format: cell-based. To be noted: for IC50: read-out: DOR Antagonist IC50+/-SEM.
Data set [5] relates to squirrel monkeys. Description: antinociceptive effects in vivo in squirrel monkeys.
Data set [6] concerns squirrel monkeys. Description: ventilatory ratio / respiratory effects in squirrel monkeys. The data set is classed as in vivo.
In data set [7] the target is T2, MOR (Homo sapiens, UniProt P35372). Description: binding affinity at MOR.
Data set [8] has as its target T2, MOR. Put plainly: GTP assay (G-protein activation) at MOR. The data set is classed as biochemical.

Where two headings read alike, the source gives them in different places.

Sequence of kappa-opioid receptor (KOR) (P41145 whole entry): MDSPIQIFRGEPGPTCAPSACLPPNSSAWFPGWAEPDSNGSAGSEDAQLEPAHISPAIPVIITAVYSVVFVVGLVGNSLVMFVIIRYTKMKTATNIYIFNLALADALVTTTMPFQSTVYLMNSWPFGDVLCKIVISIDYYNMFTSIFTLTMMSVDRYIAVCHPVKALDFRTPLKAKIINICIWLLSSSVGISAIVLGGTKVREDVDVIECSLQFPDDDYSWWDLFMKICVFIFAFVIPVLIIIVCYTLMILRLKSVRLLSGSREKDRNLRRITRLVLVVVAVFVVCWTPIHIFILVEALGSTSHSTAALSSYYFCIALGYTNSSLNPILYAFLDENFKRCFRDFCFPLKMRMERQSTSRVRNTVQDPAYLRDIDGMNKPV
T2 sequence (P35372 whole entry): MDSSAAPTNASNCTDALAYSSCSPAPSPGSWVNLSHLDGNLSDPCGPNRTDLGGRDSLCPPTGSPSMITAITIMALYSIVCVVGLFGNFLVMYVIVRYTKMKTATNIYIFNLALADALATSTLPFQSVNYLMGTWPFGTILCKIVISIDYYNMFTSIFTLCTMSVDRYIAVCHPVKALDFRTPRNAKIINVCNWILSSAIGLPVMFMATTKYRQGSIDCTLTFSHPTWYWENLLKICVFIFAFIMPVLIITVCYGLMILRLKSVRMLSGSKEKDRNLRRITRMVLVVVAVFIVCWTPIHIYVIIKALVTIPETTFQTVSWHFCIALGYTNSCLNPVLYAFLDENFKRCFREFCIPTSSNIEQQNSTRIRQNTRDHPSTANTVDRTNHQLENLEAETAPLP
Sequence of mu-opioid receptor (MOR) (P35372 whole entry): as above
T1 sequence (P41143 whole entry): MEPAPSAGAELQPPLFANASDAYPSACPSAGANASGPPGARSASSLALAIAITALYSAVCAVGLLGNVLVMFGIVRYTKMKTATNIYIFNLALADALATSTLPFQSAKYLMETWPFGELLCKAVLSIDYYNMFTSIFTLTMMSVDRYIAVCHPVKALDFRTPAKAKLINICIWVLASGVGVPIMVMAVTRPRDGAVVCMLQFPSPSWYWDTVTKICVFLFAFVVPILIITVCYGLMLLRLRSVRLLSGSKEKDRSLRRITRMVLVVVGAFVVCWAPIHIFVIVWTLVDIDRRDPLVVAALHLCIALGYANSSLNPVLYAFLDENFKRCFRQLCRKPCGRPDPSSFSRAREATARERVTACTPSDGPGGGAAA

Turning to `C=C[C@@H]1[C@@H]2CCC[C@@]1(c1cccc(O)c1)CCN2CCc1ccccc1` [Compound 18, 3-((1S,5R,9S)-2-Phenethyl-9-vinyl-2-azabicyclo[3.3.1]nonan-5-yl) phenol], in data set [1] (normalized to nor-BNI), the “KOR Antagonist % Imax+/-SEM” value came to 105.6 ± 4.6%. For the same compound, in data set [1] (versus EC90 of U50488H), the IC50 amounted to 128 ± 48.2 nM. For the same compound, in data set [2], the Emax was 46.6% and the EC50 came to 3.94 nM. Further, in data set [3], the Emax is 40.6% and the EC50 amounted to 122 ± 47.1 nM.
Consider `C=C[C@H]1[C@@H]2CCC[C@@]1(c1cccc(O)c1)CCN2CCc1ccccc1` [Compound 19, 3-((1S,5R,9R)-2-Phenethyl-9-vinyl-2-azabicyclo[3.3.1]nonan-5-yl) phenol], for which, in data set [1], the “KOR Antagonist % Imax+/-SEM” value is recorded as 28.39 ± 4.24 (104.9 ± 11.2%); the “KOR antagonist (result in words)” value was “weak DOR and KOR antagonist”; the IC50 amounted to 28.4 nM. For the same compound, in data set [4], the “DOR Antagonist % Imax+/-SEM” value is 143.65 ± 41.03 (201.4 ± 35.9%); the “DOR antagonist (result in words)” value is “weak DOR and KOR antagonist”; the IC50 stood at 144 nM.
For `CCC=C[C@H]1[C@H]2CCC[C@]1(c1cccc(O)c1)CCN2CCc1ccccc1` (stereo in doubt) [Compound 29, 3-((1R,5S,9R)-9-((E)-but-1-en-1-yl)-2-phenethyl-2-azabicyclo[3.3.1]nonan-5-yl) phenol], in data set [1] (normalized to nor-BNI), the “KOR Antagonist % Imax+/-SEM” value stood at 109.5 ± 8.3%. For the same compound, the IC50 in data set [1] (versus EC90 of U50488H) is 328 ± 96.9 nM; in data set [4] (versus EC50 of SNC80), 69 ± 4.83 nM. In data set [2], the Emax is 95.8%. Further, in data set [2], the EC50 turned out to be 11.6 nM. Besides, the “DOR Antagonist % Imax+/-SEM” value in data set [4] (normalized to naltrexone) came out at 166.6 ± 40.0%.
For `C=C[C@H]1[C@H]2CCC[C@]1(c1cccc(O)c1)CCN2CCc1ccccc1` [Compound 13, 3-((1R,5S,9R)-2-Phenethyl-9-vinyl-2-azabicyclo[3.3.1]nonan-5-yl) phenol], the “KOR Antagonist % Imax+/-SEM” value in data set [1] (normalized to nor-BNI) turned out to be 97.1 ± 9.2%. For the same compound, in data set [1] (versus EC90 of U50488H), the IC50 is 74 ± 30.5 nM. In addition, the antinociceptive effects result in data set [5] is “had antinociceptive effects in vivo”. For the same compound, in data set [2], the “MOR Agonist % Emax+/-SEM” value is reported as 1.44 ± 0.48 (94.7 ± 3.1%) and the EC50 was found to be 1.44 nM. Besides, the “effect on ventilatory ratio” value in data set [6] is listed as “decreased ventilatory ratio”. Moreover, the Ki in data set [7] turned out to be 0.5 nM. In data set [8], this compound showed an Emax of 20.1%. Besides, the “DOR Antagonist % Imax+/-SEM” value in data set [4] (normalized to naltrexone) is given as 119.1 ± 15.5%. Also, the IC50 in data set [4] (versus EC50 of SNC80) is 113 ± 43.6 nM.
Take `CCC=C[C@@H]1[C@H]2CCC[C@]1(c1cccc(O)c1)CCN2CCc1ccccc1` (stereo in doubt) [Compound 30, 3-((1R,5S,9S)-9-((E)-but-1-en-1-yl)-2-phenethyl-2-azabicyclo[3.3.1]nonan-5-yl) phenol]: the “KOR Antagonist % Imax+/-SEM” value in data set [1] (normalized to nor-BNI) is 103.8 ± 9.2%. In addition, the IC50 in data set [1] (versus EC90 of U50488H) was determined as 283 ± 46.4 nM; in data set [4] (versus EC50 of SNC80) it was 3220 ± 572 nM. The Emax in data set [2] is 89.8%. Besides, the EC50 in data set [2] came out at 14.8 nM. Moreover, the “DOR Antagonist % Imax+/-SEM” value in data set [4] (normalized to naltrexone) amounted to 182.3 ± 56.4%.
Turning to `CC=C[C@@H]1C2CCC[C@@]1(c1cccc(O)c1)CCN2CCc1ccccc1` (stereo in doubt) [Compound 27, 3-((1R,5R,9S)-2-Phenethyl-9-((E)-prop-1-en-1-yl)-2-azabicyclo[3.3.1]nonan-5-yl) phenol], the “KOR Antagonist % Imax+/-SEM” value in data set [1] (normalized to nor-BNI) stood at 111.8 ± 2.2%. The IC50 in data set [1] (versus EC90 of U50488H) amounted to 163 ± 37 nM. In data set [2], the Emax is 57.5% and the EC50 turned out to be 4.66 nM. Moreover, in data set [3], the Emax was 66.7% and the EC50 was determined as 60.5 ± 3.74 nM.
For the compound `C=C[C@@H]1[C@H]2CCC[C@]1(c1cccc(O)c1)CCN2CCc1ccccc1` [Compound 14, 3-((1R,5S,9S)-2-Phenethyl-9-vinyl-2-azabicyclo[3.3.1]nonan-5-yl) phenol], in data set [1] (normalized to nor-BNI), the “KOR Antagonist % Imax+/-SEM” value is 101.8 ± 19.1%. Further, the IC50 in data set [1] (versus EC90 of U50488H) amounted to 19.8 ± 9.71 nM. In data set [5], the antinociceptive effects entry is recorded as “antinociceptive effects in some, but not all animals”. Further, in data set [2], the Emax came out at 67.3% and the EC50 is 2.12 nM. Moreover, in data set [6], the “effect on ventilatory ratio” value is on record as “without selective effects on ventilatory ratio” and the “respiratory effects compared with morphine” value is “lessor respiratory effects”. The Emax in data set [8] was determined as 10.5%. Also, in data set [3], the Emax was 22.6% and the EC50 stood at 57 ± 21.4 nM.
As for `CCC=C[C@@H]1[C@@H]2CCC[C@@]1(c1cccc(O)c1)CCN2CCc1ccccc1` (stereo in doubt) [Compound 33, 3-((1S,5R,9S)-9-((E)-but-1-en-1-yl)-2-phenethyl-2-azabicyclo[3.3.1]nonan-5-yl) phenol], the “KOR Antagonist % Imax+/-SEM” value in data set [1] (normalized to nor-BNI) was found to be 96.2 ± 0.9%. Also, the values for the IC50 in data set [1] (versus EC90 of U50488H) and in data set [4] (versus EC50 of SNC80) were 12.2 ± 2.49 nM and 520 ± 144 nM, respectively. Also, the “DOR Antagonist % Imax+/-SEM” value in data set [4] (normalized to naltrexone) is 226.1 ± 14.0%.
For `CCC=C[C@H]1[C@@H]2CCC[C@@]1(c1cccc(O)c1)CCN2CCc1ccccc1` (stereo in doubt) [Compound 34, 3-((1S,5R,9R)-9-((E)-but-1-en-1-yl)-2-phenethyl-2-azabicyclo[3.3.1]nonan-5-yl) phenol], the “KOR antagonist (result in words)” value in data set [1] is listed as “moderately potent KOR antagonist”. In data set [1] (normalized to nor-BNI), the “KOR Antagonist % Imax+/-SEM” value worked out at 98.2 ± 2.3%. Besides, the IC50 came out at 0.79 ± 0.28 nM in data set [1] (versus EC90 of U50488H) and 8.22 ± 2.44 nM in data set [4] (versus EC50 of SNC80). For the same compound, the “DOR antagonist (result in words)” value in data set [4] was “potent DOR antagonist”. For the same compound, in data set [4] (normalized to naltrexone), the “DOR Antagonist % Imax+/-SEM” value was 211.5 ± 24.7%.
In the case of `CC=C[C@H]1[C@H]2CCC[C@]1(c1cccc(O)c1)CCN2CCc1ccccc1` (stereo in doubt) [Compound 22, 3-((1R,5S,9R)-2-phenethyl-9-((E)-prop-1-en-1-yl)-2-azabicyclo[3.3.1]nonan-5-yl) phenol], the “KOR Antagonist % Imax+/-SEM” value in data set [1] (normalized to nor-BNI) was found to be 111.6 ± 7.9%. Moreover, the IC50 in data set [1] (versus EC90 of U50488H) was found to be 35 ± 9.72 nM. Also, the antinociceptive effects entry in data set [5] is on record as “had antinociceptive effects”. Moreover, in data set [2], the “MOR Agonist % Emax+/-SEM” value was 2.61 ± 0.64 (89.5 ± 2.9%) and the EC50 was 2.61 nM. In addition, in data set [6], the “effect on ventilatory ratio” value is reported as “slightly lessor effects on ventilatory ratio” and the “respiratory effects compared with morphine” value is given as “lessor respiratory effects”. In data set [8], this compound gave an Emax of 18%. Also, the “DOR Antagonist % Imax+/-SEM” value in data set [4] (normalized to naltrexone) worked out at 143.3 ± 11.9%. The IC50 in data set [4] (versus EC50 of SNC80) came out at 113 ± 19.8 nM.
Take `CC=C[C@H]1C2CCC[C@@]1(c1cccc(O)c1)CCN2CCc1ccccc1` (stereo in doubt) [Compound 26, 3-((1R,5R,9R)-2-Phenethyl-9-((E)-prop-1-en-1-yl)-2-azabicyclo[3.3.1]nonan-5-yl) phenol]: the “KOR antagonist (result in words)” value in data set [1] is “moderately potent KOR antagonist”. The “KOR Antagonist % Imax+/-SEM” value in data set [1] (normalized to nor-BNI) is on record as 126.7 ± 2.6%. The IC50 in data set [1] (versus EC90 of U50488H) is 4.02 ± 0.25 nM; in data set [4] (versus EC50 of SNC80), 7.52 ± 2.93 nM. For the same compound, the “DOR Antagonist % Imax+/-SEM” value in data set [4] (normalized to naltrexone) is recorded as 142.5 ± 23.7%.
With `CC=C[C@@H]1[C@H]2CCC[C@]1(c1cccc(O)c1)CCN2CCc1ccccc1` (stereo in doubt) [Compound 23, 3-((1R,5S,9S)-2-Phenethyl-9-((E)-prop-1-en-1-yl)-2-azabicyclo[3.3.1]nonan-5-yl) phenol], the “KOR Antagonist % Imax+/-SEM” value in data set [1] (normalized to nor-BNI) came to 114.8 ± 11.2%. Besides, the IC50 in data set [1] (versus EC90 of U50488H) is 238 ± 52.6 nM; in data set [4], 9.69 ± 2.23 nM. The “MOR potency relative to morphine” value in data set [2] worked out at 30 fold. In data set [2], the Emax is 101%. Further, the EC50 in data set [2] is 0.07 nM; in data set [3], greater than 10000 nM. The “DOR Antagonist % Imax+/-SEM” value in data set [4] (normalized to naltrexone) was determined as 74.5 ± 2.3%.
